Assay results taken from EP4741392A1, “1H-PYRAZOLO[4,3-C]PYRIDINE COMPOUND, AND COMPOSITION THEREOF AND USE THEREOF” (Shenzhen TargetRx Co., Ltd., priority 2023, dated 2025).

Columns and labels:
Type in all cases: biochemical
BTK T474I = target: T1, BTK T474I (Homo sapiens, UniProt Q06187, T474I); test: Kinase activity inhibition assay (HTRF TK Kit)
T1 construct: purchased SignalChem B10-12HH
Text: (§1) In this assay, the HTRF TK Kit (Catalog No. 62TK0PEC) provided by Cisbio was used to detect the inhibitory activity of compounds on BTK kinase, BTK T474I kinase and BTK C481 S kinase and the selectivity of compounds relative to EGFR, ITK and TEC kinases.
(§2) Reagents and consumables: BTK kinase (Invitrogen, Catalog No. PV3587), BTK C481S (Carna, Product No. 08-547), BTK T474I(SignalChem Product No. B10-12HH), ITK (Cama, Product No. 08-181), EGFR (Cama, Product No. 08-115), TEC (Carna, Product No. 08-182), HTRF-TK kit (Cisbio, Product No. 62TK0PEC), MgCl2 (Sigma, Product No. M1028), MnCl2 (Sigma, Product No. M1787), DTT (Sigma, Product No. D0632), ATP (Sigma, Product No. A7699-1g), DMSO (Sigma, Product No. D2650), 384-well plate (PE, Product No. 6008280).
(§3) The entire operation steps were carried out on ice, and the total reaction volume was 10µL. A compound (4µL), substrate and ATP (4µL), and kinase (2µL) were added in sequence to a 384-well plate, and the plate was shaken for 30 seconds. The mixture was reacted at room temperature for an appropriate time, and then the detection reagent was added. The resulting mixture was reacted at room temperature for 1 hour, and then the plate was assayed with a microplate reader. The specific steps were as follows: • a) a 1 × kinase buffer solution required for the kinase assay was calculated according to the amount of the test compound, and prepared as needed; • b) 2.5 × working concentration of a compound was prepared, 100-fold gradient concentration solutions of a compound were diluted by 40 × to the desired concentration, respectively, mixed well, and added to each well at 4 µL per well; • c) 5 × working concentration of the substrate and ATP were prepared, mixed in a ratio of 1:1 before being added to the 384-well plate, and added to each well at 4 µL per well; • d) 5 × working concentration of a kinase was prepared, 2 µL of which was added to each well; • e) the plate was shaken on a microplate shaker for 30 seconds, sealed with a sealing membrane, and the mixture was reacted at room temperature for an appropriate time; • f) 4 × working concentration of streptavidin XL-665 and TK antibody-cryptate compound were prepared, mixed in a ratio of 1:1 before being added to the 384-well plate, and added to each well at 10 µL per well; • g) the mixture was reacted at room temperature for 1 hour, and then the plate was read; • h) the wells with only substrate, ATP and 1% DMSO added but no kinase were blank control wells, and the wells with only substrate, ATP, 1% DMSO and kinase were positive control wells.
(§4) Readings: The values of 620 nm (cryptate) and 665 nm (XL665) were read with a BioTek Synerg Neo2 microplate reader, the ratio of 665/620 for each well was calculated, and the data were exported.
(§5) Data analysis: IC50 was calculated using GraphPad Prism 7.0 software.
(§6) The IC50 (half-maximal inhibitory concentration) of the compound was obtained using the following nonlinear fitting formula: Y = Bottom + (Top−Bottom)/(1+10^(∧)((LogIC50−X)*HillSlope)) [formula] • X: Log value of the compound concentration • Y: Inhibition rate (% inhibition) • Top: Maximum response • Bottom: Baseline response • HillSlope: Slope of the curve
(§7) The formula for calculating kinase inhibition rate (inhibition rate %) was: [formula]

BTK C481S = target: T2, BTK C481S (Homo sapiens, UniProt Q06187, C481S); test: Kinase activity inhibition assay (HTRF TK Kit)
T2 construct: purchased Carna 08-547
Text: as §1, §2, §3, §4, §5, §6, §7

BTK kinase = target: T3, BTK kinase (Homo sapiens, UniProt Q06187); test: Kinase activity inhibition assay (HTRF TK Kit)
T3 construct: purchased Invitrogen PV3587
Text: as §1, §2, §3, §4, §5, §6, §7

EGFR = target: T4, EGFR (Homo sapiens, UniProt P00533); test: Kinase activity inhibition assay (HTRF TK Kit), selectivity
T4 construct: purchased Carna 08-115
Text: as §1, §2, §3, §4, §5, §6, §7

TEC = target: T5, TEC (Homo sapiens, UniProt P42680); test: as above
T5 construct: purchased Carna 08-182
T5 sequence (P42680 1-631): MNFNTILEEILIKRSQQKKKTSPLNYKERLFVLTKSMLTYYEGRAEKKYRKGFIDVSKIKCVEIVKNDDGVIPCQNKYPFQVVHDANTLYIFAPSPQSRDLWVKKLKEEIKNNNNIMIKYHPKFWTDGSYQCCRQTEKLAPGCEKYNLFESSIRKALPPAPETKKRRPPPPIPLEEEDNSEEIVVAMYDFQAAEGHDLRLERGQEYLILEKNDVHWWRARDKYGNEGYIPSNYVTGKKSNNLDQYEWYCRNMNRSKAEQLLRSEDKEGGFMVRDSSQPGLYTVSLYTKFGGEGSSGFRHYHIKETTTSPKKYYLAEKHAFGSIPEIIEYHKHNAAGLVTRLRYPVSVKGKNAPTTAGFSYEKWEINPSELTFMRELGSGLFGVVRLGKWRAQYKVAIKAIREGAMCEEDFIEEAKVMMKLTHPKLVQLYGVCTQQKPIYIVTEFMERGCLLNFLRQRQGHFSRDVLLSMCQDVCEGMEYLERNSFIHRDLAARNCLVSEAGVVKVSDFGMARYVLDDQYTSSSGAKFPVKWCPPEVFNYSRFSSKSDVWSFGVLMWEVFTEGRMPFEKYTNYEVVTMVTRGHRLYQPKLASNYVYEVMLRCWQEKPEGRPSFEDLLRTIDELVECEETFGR
Text: as §1, §2, §3, §4, §5, §6, §7

ITK = target: T6, ITK (Homo sapiens, UniProt Q08881); test: as above
T6 construct: purchased Carna 08-181
T6 sequence (Q08881 1-620): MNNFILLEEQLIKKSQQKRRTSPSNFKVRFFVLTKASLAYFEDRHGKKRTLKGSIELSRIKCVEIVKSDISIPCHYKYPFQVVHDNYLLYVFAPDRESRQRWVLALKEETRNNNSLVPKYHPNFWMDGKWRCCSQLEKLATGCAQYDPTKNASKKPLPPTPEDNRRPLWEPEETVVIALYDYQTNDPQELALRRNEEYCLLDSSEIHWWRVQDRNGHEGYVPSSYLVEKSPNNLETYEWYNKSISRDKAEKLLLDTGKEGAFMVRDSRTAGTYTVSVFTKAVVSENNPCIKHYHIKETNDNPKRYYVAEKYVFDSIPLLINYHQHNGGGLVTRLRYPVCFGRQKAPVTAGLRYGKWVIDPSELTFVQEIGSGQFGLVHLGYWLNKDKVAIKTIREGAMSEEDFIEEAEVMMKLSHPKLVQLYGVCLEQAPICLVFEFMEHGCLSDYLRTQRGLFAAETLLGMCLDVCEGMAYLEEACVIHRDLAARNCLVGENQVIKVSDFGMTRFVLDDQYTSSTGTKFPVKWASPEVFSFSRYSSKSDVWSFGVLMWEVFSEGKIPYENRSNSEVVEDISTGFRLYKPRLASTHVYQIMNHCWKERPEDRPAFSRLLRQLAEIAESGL
Text: as §1, §2, §3, §4, §5, §6, §7

T1 sequence (Q06187 whole entry T474I): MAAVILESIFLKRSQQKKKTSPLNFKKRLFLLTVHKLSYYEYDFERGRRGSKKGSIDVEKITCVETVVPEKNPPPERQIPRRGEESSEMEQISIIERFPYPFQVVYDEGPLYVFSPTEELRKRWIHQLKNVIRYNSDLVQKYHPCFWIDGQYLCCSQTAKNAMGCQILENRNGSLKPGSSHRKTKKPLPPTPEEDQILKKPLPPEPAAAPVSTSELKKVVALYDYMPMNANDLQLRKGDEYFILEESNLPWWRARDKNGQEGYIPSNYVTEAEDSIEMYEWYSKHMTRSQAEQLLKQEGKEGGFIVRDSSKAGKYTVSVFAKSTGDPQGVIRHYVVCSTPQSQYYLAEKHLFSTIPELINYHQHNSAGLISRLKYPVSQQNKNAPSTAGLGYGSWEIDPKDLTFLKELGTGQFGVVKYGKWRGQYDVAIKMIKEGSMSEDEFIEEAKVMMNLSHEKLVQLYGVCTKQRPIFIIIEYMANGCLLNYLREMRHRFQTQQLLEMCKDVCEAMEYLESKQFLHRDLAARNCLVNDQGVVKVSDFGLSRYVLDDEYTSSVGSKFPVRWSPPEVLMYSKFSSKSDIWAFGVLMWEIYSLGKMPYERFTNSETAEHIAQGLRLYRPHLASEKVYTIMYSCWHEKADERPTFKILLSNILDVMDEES
T3 sequence (Q06187 whole entry): as the sequence (Q06187 whole entry T474I) above, with I474T counted along it
T4 sequence (P00533 669-1210 limits assumed): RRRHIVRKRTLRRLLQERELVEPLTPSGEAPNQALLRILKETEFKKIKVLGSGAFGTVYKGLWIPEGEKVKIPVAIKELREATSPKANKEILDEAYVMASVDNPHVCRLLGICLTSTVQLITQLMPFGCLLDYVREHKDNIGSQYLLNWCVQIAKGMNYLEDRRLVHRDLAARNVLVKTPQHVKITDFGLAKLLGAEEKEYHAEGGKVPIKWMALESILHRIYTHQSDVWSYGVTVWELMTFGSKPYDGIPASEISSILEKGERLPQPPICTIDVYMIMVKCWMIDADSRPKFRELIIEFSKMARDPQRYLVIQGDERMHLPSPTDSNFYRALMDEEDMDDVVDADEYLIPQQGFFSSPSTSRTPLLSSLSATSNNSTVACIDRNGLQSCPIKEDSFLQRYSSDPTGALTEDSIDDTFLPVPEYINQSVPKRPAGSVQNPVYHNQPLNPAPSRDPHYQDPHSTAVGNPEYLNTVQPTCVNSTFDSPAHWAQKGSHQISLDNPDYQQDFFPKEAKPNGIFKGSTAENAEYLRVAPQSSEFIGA
T2 sequence (Q06187 whole entry C481S): as the sequence (Q06187 whole entry T474I) above, with I474T, C481S counted along it

SMILES | IC50 (BTK T474I) | IC50 (BTK C481S) | IC50 (BTK kinase) | IC50 (EGFR) | IC50 (TEC) | IC50 (ITK)
COc1ccc(F)cc1C(=O)NCc1ccc(-c2ncc(-c3ccn(CC(F)(F)F)n3)c3[nH]nc(N)c23)cc1 [Example 28, N-(4-(3-amino-7-(1-(2,2,2-trifluoroethyl)-1H-pyrazol-3-yl)-1H-pyrazolo[4,3-c]pyridin-4-yl)benzyl)-5-fluoro-2-methoxybenzamide] | 50 to 500 nM | 1 to 5 nM | 1 to 5 nM | 5 to 50 nM | 5 to 50 nM | 50 to 500 nM
COc1ccc(F)cc1C(=O)NCc1ccc(-c2ncc(-c3cn(C)cn3)c3[nH]nc(N)c23)cc1 [Example 30, N-(4-(3-amino-7-(1-methyl-1H-imidazol-4-yl)-1H-pyrazolo[4,3-c]pyridin-4-yl)benzyl)-5-fluoro-2-methoxybenzamide] | 50 to 500 nM | 1 to 5 nM | 1 to 5 nM | 50 to 500 nM | 50 to 500 nM | > 500 nM
COc1ccc(F)cc1C(=O)NCc1ccc(-c2ncc(-c3cc[nH]n3)c3[nH]nc(N)c23)cc1 [Example 31, N-(4-(3-amino-7-(1H-pyrazol-3-yl)-1H-pyrazolo[4,3-c]pyridin-4-yl)benzyl)-5-fluoro-2-methoxybenzamide] | 50 to 500 nM | 1 to 5 nM | 1 to 5 nM | 50 to 500 nM | 50 to 500 nM | > 500 nM
COc1ccc(F)cc1C(=O)NCc1ccc(-c2ncc(-c3ccc(S(C)(=O)=O)cn3)c3[nH]nc(N)c23)cc1 [Example 35, N-(4-(3-amino-7-(5-(methylsulfonyl)pyridin-2-yl)-1H-pyrazolo[4,3-c]pyridin-4-yl)benzyl)-5-fluoro-2-methoxybenzamide] | 5 to 50 nM | ≤ 1 nM | ≤ 1 nM | 50 to 500 nM | 5 to 50 nM | 50 to 500 nM
COc1ccc(F)cc1C(=O)NCc1ccc(-c2ncc(-c3ncc(F)cn3)c3[nH]nc(N)c23)cc1 [Example 36, N-(4-(3-amino-7-(5-fluoropyrimidin-2-yl)-1H-pyrazolo[4,3-c]pyridin-4-yl)benzyl)-5-fluoro-2-methoxybenzamide] | 50 to 500 nM | 1 to 5 nM | 1 to 5 nM | 50 to 500 nM | 50 to 500 nM | > 500 nM
COc1ccc(F)cc1C(=O)NCc1ccc(-c2ncc(-c3ccc(C)cn3)c3[nH]nc(N)c23)cc1 [Example 37, N-(4-(3-amino-7-(5-methylpyridin-2-yl)-1H-pyrazolo[4,3-c]pyridin-4-yl)benzyl)-5-fluoro-2-methoxybenzamide] | 50 to 500 nM | ≤ 1 nM | ≤ 1 nM | 50 to 500 nM | 5 to 50 nM | > 500 nM
COc1ccc(F)cc1C(=O)NCc1ccc(-c2ncc(-c3ccc(Cl)cn3)c3[nH]nc(N)c23)cc1 [Example 38, N-(4-(3-amino-7-(5-chloropyridin-2-yl)-1H-pyrazolo[4,3-c]pyridin-4-yl)benzyl)-5-fluoro-2-methoxybenzamide] | 50 to 500 nM | 1 to 5 nM | 5 to 50 nM | 50 to 500 nM | 5 to 50 nM | > 500 nM
COc1ccc(F)cc1C(=O)NCc1ccc(-c2ncc(-c3ncc(C)cn3)c3[nH]nc(N)c23)cc1 [Example 39, N-(4-(3-amino-7-(5-methylpyrimidin-2-yl)-1H-pyrazolo[4,3-c]pyridin-4-yl)benzyl)-5-fluoro-2-methoxybenzamide] | 5 to 50 nM | ≤ 1 nM | ≤ 1 nM | 50 to 500 nM | 5 to 50 nM | 50 to 500 nM
COc1ccc(F)cc1C(=O)NCc1ccc(-c2ncc(-c3ccc(OC(F)(F)F)cn3)c3[nH]nc(N)c23)cc1 [Example 41, N-(4-(3-amino-7-(5-(trifluoromethoxy)pyridin-2-yl)-1H-pyrazolo[4,3-c]pyridin-4-yl)benzyl)-5-fluoro-2-methoxybenzamide] | 5 to 50 nM | ≤ 1 nM | 1 to 5 nM | 50 to 500 nM | 5 to 50 nM | 50 to 500 nM
COc1ccc(F)cc1C(=O)NCc1ccc(-c2ncc(-c3ncc(C(F)(F)F)cn3)c3[nH]nc(N)c23)cc1 [Example 42, N-(4-(3-amino-7-(5-(trifluoromethyl)pyrimidin-2-yl)-1H-pyrazolo[4,3-c]pyridin-4-yl)benzyl)-5-fluoro-2-methoxybenzamide] | > 500 nM | 1 to 5 nM | 1 to 5 nM | > 500 nM | 50 to 500 nM | > 500 nM
COc1ccc(F)cc1C(=O)NCc1ccc(-c2ncc(-c3ccc(C4COC4)cn3)c3[nH]nc(N)c23)cc1 [Example 43, N-(4-(3-amino-7-(5-(oxetan-3-yl)pyridin-2-yl)-1H-pyrazolo[4,3-c]pyridin-4-yl)benzyl)-5-fluoro-2-methoxybenzamide] | 5 to 50 nM | ≤ 1 nM | ≤ 1 nM | 5 to 50 nM | 1 to 5 nM | 50 to 500 nM
COc1ccc(F)cc1C(=O)NCc1ccc(-c2ncc(-c3cc4ncccn4n3)c3[nH]nc(N)c23)cc1 [Example 44, N-(4-(3-amino-7-(pyrazolo[1,5-a]pyrimidin-2-yl)-1H-pyrazolo[4,3-c]pyridin-4-yl)benzyl)-5-fluoro-2-methoxybenzamide] | 5 to 50 nM | ≤ 1 nM | ≤ 1 nM | 5 to 50 nM | 5 to 50 nM | 50 to 500 nM
